Values of other authors, collected in patent publication US20030036641A1, “Methods for homology-driven reassembly of nucleic acid sequences” (priority 2001, published 2003).

System: E. coli TG1
Details: E. coli TG1 containing pGJ103 (pI258 ars operon in pUC19), LB ampicillin agar plates

sodium arsenate
MIC (minimum inhibitory concentration): 4 µg/mL
